Data set [1] has as its target T1, S1P1 (Homo sapiens, UniProt P21453).
T1 construct: expressed in transfected cells; membranes
Put plainly: Radioligand binding assay, 33P-S1P labelled S1P1 receptor. The conditions noted are these: 33P-S1P labelled receptors. As to the method: (§1) HEK293 or CHO cells expressing S1P1-5, are prepared in ˜0.5×10^5 cells/well. Cells are plated into each well of a 6-well plate in 2 ml of growth media (OptiMEM, Invitrogen). Two micrograms receptor plasmid DNA is mixed in 200 ul OptiMEM, and combined with 6 ul Lipofectamine (2000-9, Invitrogen). The mixture is added drop wise to 2 ml of growth media covering the cells in each well. The cells are allowed to transfect for 8-18 hours at room temperature. The OptiMEM transfection medium is replaced with 2 ml fresh serum-containing medium an incubated for 48 hours. The cells are diluted 1:10 in selection media (OptiMEM. Invitrogen) containing 0.8 mg/ml G418 in 10 cm dishes. Colonies are allowed to form (˜1-2 weeks), and 12 colonies from each dish are independently harvested with cloning disks and placed into 24-well plates.
(§2) Cell membranes from CHO-S1P1-5 or HEK-S1P1-5 transfected cells are prepared by homogenizing the cells in an ice cold solution containing 25 mM Tris, 5 mM EDTA, 5 mM EGTA, and Complete Protease Inhibitor Cocktail, EDTA-Free (Roche #1 873 580). Cells are lysed by dounce homogenization and centrifugation at 20,000×g for 20 minutes at 4° C. Membrane pellets are resuspended in the same buffer and centrifuged again at 20,000×g for 20 minutes at 4° C. Final membrane pellet is resuspended in 20 mM HEPES, pH 7.5, 5 mM MgCl2, 1 mM CaCl2. Protein concentration is determined using the Micro BCA protein assay (Pierce #23235).
(§3) Serial dilutions of test compounds in DMSO are prepared in 96 well polypropylene plates. Using the FX robot 1:50 intermediate dilutions are made to assay buffer (20 mM HEPES, pH 7.5, 5 mM MgCl2, 1 mM CaCl2, 4 mg/ml fatty-acid free BSA). This intermediate is further diluted 1:10 to the final assay reaction. Final DMSO concentration in the reaction is 0.2%. Final reaction contains 50 pM ^33P-S1P (Perkin Elmer; Special Order), and 2.5 μg of cell membranes. The reaction is incubated at room temperature for 30 minutes and stopped by filtration through GF/B UniFilter Plates (Perkin Elmer #6005177) and washed four times with wash buffer containing 50 mM Tris pH 7.4, 0.025% Tween-20. The filter plates are dried for approximately 20 minutes in an oven at 50° C. Back seals are adhered to the filter plates and 40 μl of Microscint-20 scintillation fluid is added (Perkin Elmer #6013621). The filter plates are sealed, shaken for 30 minutes at room temperature, and counted on a Top Count (PerkinElmer).

Data set [2] addresses T2, S1P3 (Homo sapiens, UniProt Q99500).
T2 construct: expressed in transfected cells; membranes
Kind of data set: Radioligand binding assay, 33P-S1P labelled S1P3 receptor. The conditions noted are these: 33P-S1P labelled receptors. As to the method: as §1, §2, §3

In data set [3] the target is T3, S1P4 (Homo sapiens, UniProt O95977).
T3 construct: expressed in transfected cells; membranes
T3 sequence (O95977 1-384): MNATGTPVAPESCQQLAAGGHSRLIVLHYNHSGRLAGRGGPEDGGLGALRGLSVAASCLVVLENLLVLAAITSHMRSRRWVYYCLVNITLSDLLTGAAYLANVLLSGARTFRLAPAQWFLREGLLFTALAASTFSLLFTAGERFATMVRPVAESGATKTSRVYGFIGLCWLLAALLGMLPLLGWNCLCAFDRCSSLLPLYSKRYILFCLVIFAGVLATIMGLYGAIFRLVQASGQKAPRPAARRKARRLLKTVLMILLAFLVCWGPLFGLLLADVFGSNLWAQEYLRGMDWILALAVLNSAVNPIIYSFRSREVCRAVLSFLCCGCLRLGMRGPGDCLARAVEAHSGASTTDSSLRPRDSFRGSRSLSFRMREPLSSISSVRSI
Put plainly: Radioligand binding assay, 33P-S1P labelled S1P4 receptor. The conditions noted are these: 33P-S1P labelled receptors. As to the method: as §1, §2, §3

Data set [4] has as its target T4, S1P2 (Homo sapiens, UniProt O95136).
T4 construct: expressed in transfected cells; membranes
Kind of data set: Radioligand binding assay, 33P-S1P labelled S1P2 receptor. The conditions noted are these: 33P-S1P labelled receptors. As to the method: as §1, §2
(§4) Serial dilutions of test compounds in DMSO are prepared in 96 well polypropylene plates. Using the FX robot 1:50 intermediate dilutions are made to assay buffer (20 mM HEPES, pH 7.5, 5 mM MgCl2, 1 mM CaCl2, 4 mg/ml fatty-acid free BSA). This intermediate is further diluted 1:10 to the final assay reaction. Final DMSO concentration in the reaction is 0.2%. […] The filter plates are sealed, shaken for 30 minutes at room temperature, and counted on a Top Count (PerkinElmer).

The target in data set [5] is T5, S1P5 (Homo sapiens, UniProt Q9H228).
T5 construct: expressed in transfected cells; membranes
T5 sequence (Q9H228 whole entry): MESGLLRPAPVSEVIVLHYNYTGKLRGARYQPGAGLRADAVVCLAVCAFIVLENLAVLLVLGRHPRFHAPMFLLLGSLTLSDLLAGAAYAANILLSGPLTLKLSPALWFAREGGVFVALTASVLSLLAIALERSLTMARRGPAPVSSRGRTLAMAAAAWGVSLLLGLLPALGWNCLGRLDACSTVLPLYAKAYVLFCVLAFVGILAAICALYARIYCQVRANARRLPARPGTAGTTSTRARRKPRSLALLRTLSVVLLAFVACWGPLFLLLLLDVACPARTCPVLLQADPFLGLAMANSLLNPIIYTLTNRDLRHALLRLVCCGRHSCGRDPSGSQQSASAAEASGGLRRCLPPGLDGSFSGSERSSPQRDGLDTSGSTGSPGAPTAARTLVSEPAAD
Put plainly: Radioligand binding assay, 33P-S1P labelled S1P5 receptor. To be noted: 33P-S1P labelled receptors. As to the method:
as §1, §2, §4

The nature of data set [6]: Terminal half life and clearance from blood samples. Type of data set: in vivo, CD1 mice. The conditions noted are these: CD1, mouse, oral; for clearance: read-out: Cl (ml/min/kg) (clearance). The text has this:
Agonium of S1P1 results in S1P1 internalization, inhibiting lymphocyte egress into circulation, and is clinically presented as lymphopenia (Chiba, Pharmacology & Therapeutics 2005; 108,308-319, 2005). The following protocol may be used to assess the potential induction of lymphopenia for the test compounds when administered as a single oral dose to CD1 mice.
A suspension of 5% Gelucire may be used as the vehicle to prepare dosing formulations and to dose vehicle control animals. Test compound is weighed and transferred to a 15 mL Falcon tube or equivalent to make stock formulations. The appropriate amount of 5% Gelucire vehicle is then added to the tube. The resulting formulation is sonicated with a probe sonicator until no obvious particulate matter is apparent. About 500 mL Gelucire (Gattefosse, St-Priest, Cedex, France) is melted in a 1000 W microwave oven set for 3 minutes on high power. The appropriate amount of Gelucire is added to deionized water to form 5% (vol/vol) aqueous Gelucire.
Blood samples (˜0.6-0.8 mL) may be collected via intracardiac puncture at appropriate time points. The mice are anesthetized by carbon dioxide and euthanized via exanguination by intracardiac puncture. Blood samples are obtained and placed in tubes containing EDTA. Lymphocytes (L, %) count is measured with Abbott Cell-Dyn 3700 automated analyzer.
Samples of blood were taken to determine terminal half life (T½) and clearance of the compounds, using well accepted methods for such assays.

Four compounds from patent US20100234435A1, “CYCLOALKYLAMINO ACID DERIVATIVES” (priority 2007, published 2010) can be followed below.

Where a name gives a salt, the structure may show the parent alone.

T2 sequence (Q99500 whole entry): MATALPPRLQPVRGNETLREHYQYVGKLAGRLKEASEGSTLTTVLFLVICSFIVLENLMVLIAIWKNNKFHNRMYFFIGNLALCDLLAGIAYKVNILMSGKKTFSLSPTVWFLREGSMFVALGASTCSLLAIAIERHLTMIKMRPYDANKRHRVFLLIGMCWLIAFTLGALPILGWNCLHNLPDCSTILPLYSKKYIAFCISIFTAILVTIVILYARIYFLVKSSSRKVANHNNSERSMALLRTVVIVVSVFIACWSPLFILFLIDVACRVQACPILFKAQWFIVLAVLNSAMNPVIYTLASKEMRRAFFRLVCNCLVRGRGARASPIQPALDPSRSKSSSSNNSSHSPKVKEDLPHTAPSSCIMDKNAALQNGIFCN
T4 sequence (O95136 whole entry): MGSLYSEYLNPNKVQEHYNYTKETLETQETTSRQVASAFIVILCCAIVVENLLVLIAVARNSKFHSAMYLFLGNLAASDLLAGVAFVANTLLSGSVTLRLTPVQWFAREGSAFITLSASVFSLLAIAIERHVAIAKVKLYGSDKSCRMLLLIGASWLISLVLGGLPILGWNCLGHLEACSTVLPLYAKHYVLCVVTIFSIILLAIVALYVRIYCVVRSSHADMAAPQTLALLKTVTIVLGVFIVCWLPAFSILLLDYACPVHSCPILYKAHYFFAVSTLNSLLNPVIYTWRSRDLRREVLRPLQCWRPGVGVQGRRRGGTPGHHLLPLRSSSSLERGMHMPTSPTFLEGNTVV
T1 sequence (P21453 whole entry): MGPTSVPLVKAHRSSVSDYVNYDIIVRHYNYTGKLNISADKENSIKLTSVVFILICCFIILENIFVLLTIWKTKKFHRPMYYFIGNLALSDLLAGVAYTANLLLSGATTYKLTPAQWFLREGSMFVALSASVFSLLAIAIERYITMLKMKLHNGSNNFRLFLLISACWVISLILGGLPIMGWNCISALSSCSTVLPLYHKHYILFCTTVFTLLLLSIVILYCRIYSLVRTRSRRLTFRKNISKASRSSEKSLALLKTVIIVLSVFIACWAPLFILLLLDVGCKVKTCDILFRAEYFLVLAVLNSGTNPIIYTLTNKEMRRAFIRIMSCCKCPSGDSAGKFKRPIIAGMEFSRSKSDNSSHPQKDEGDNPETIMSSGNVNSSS

Consider `CCCCCCCCCCCCC/C=C/[C@@H](O)[C@@H](N)COP(=O)(O)O` [Example S1P, sphingosine-1-phosphate, reference compound], for which the Ki (as a rule, the equilibrium dissociation constant of an inhibitor or competing ligand from its target) in data set [1] is 0.16 nM. The IC50 (in general, the concentration needed to halve the response being measured) was determined as 7.1 nM in data set [2] and 15 nM in data set [3].

In data set [1], `CC(C)Cc1ccc(-c2nc(-c3ccc([C@@H](C)N[C@H]4C[C@@H](C(=O)O)C4)cc3)no2)cc1` [cis-3-{[(1R)-1-{4-[5-(4-Isobutylphenyl)-1,2,4-oxadiazol-3-yl]phenyl}ethyl]amino}cyclobutanecarboxylic acid] gave a Ki of 0.29 nM. Further, the IC50 is over 1000 nM in data set [4], over 1000 nM in data set [2], 35 nM in data set [3] and 2.9 nM in data set [5]. The half-life – broadly, how long it takes for the measured level to halve – in data set [6] is 5.2 h. In addition, the clearance in data set [6] stood at 6 mL/min/kg.

Compound `CC(C)Cc1ccc(-c2nc(-c3ccc([C@H](C)N[C@H]4C[C@@H](C(=O)O)C4)cc3)no2)cc1` [cis-3-{[(1S)-1-{4-[5-(4-isobutylphenyl)-1,2,4-oxadiazol-3-yl]phenyl}ethyl]amino}cyclobutanecarboxylic acid, hydrochloride salt] yielded a Ki in data set [1] of 2.7 nM. Moreover, the IC50 in data set [4] is over 1000 nM; in data set [2], over 1000 nM; in data set [3], 331 nM; in data set [5] it was 11 nM. In data set [6], this compound showed a half-life of 6.7 h. In addition, in data set [6], the clearance is 5.11 mL/min/kg.

Regarding `CC(C)Cc1ccc(-c2nc(-c3ccc([C@@H](C)N[C@H]4C[C@H](C(=O)O)C4)cc3)no2)cc1` [trans-3-{[(1R)-1-{-4-[5-(4-Isobutylphenyl)-1-1,2,4-oxadiazol-3-yl]phenyl}ethyl]amino}cyclobutanecarboxylic acid], affinity in data set [1] was put at a Ki of 4.6 nM. In addition, the IC50 is over 1000 nM in data set [4], over 1000 nM in data set [2], 438 nM in data set [3] and 15 nM in data set [5].
